The text below walks through data of patent US11192871B2, “5-hydroxytryptamine receptor 7 activity modulators and their method of use” (Temple University-Of The Commonwealth System of Higher …, priority 2014, dated 2021).

This assay addresses Serotonin 5HT7 receptors (Homo sapiens (Human), UniProt P34969). The assay can be described thus: Radiolabel Binding Studies for Serotonin 5HT7 receptors. The note with it: for IC50: radioligand competition binding, membranes of cells expressing recombinant 5HT7 receptors; for inhibition at 10 µM: read-out: 5-HT7 % inhib @ 10 uM. How it is done: Radiolabel Binding Studies for Scrotonin 5HT7 Receptors, Method 1:
Eleven dilutions (5× assay concentration) of the compound of the disclosure and chlorpromazine are prepared in the Assay Buffer by serial dilution to yield final corresponding assay concentrations ranging from 10 pM to 10 μM.
A stock concentration of 5 nM [^3H]LSD (lysergic acid diethyl amide) is prepared in 50 mM Tris-HCl, 10 mM MgCl2, 1 mM EDTA, pH 7.4 (Assay Buffer). Aliquots (50 μl) of radioligand are dispensed into the wells of a 96-well plate containing 100 μl of Assay Buffer. Duplicate 50-μl aliquots of the compound of the disclosure test and chlorpromazine positive control reference compound serial dilutions are added.
Membrane fractions of cells expressing recombinant 5HT7 receptors (50 μL) are dispensed into each well. The membranes are prepared from stably transfected cell lines expressing 5HT7 receptors cultured on 10-cm plates by harvesting PBS-rinsed monolayers, resuspending and lysing in chilled, hypotonic 50 mM Tris-HCl, pH 7.4, centrifuging at 20,000×g, decanting the supernatant and storing at −80° C.; the membrane preparations are resuspended in 3 ml of chilled Assay Buffer and homogenized by several passages through a 26 gauge needle before using in the assay.
The 250-μl reactions are incubated at room temperature for 1.5 hours, then harvested by rapid filtration onto 0.3% polyethyleneimine-treated, 96-well filter mats using a 96-well Filtermate harvester. Four rapid 500-μl washes are performed with chilled Assay Buffer to reduce non-specific binding. The filter mats are dried, then scintillant is added to the filters and the radioactivity retained on the filters is counted in a Microbeta scintillation counter.
Raw data (dpm) representing total radioligand binding (i.e., specific+non-specific binding) are plotted as a function of the logarithm of the molar concentration of the competitor (i.e., test or reference compound).
Radiolabel Binding Studies for Serotonin 5-HT7 Receptors, Method 2:
A stock concentration of 5 nM [^3H]-5-Hydroxytryptamine ([^3H]-5HT) is prepared in 50 mM Tris-HCl, 10 mM MgCl2, 1 mM EDTA, pH 7.4 (Assay Buffer). Aliquots (50 μl) of radioligand are dispensed into the wells of a 96-well plate containing 100 μl of Assay Buffer. Duplicate 50-μl aliquots of the compound of the disclosure test and chlorpromazine positive control reference compound serial dilutions are added.
Membrane fractions of cells expressing recombinant 5HT7 receptors (50 μL) are dispensed into each well. The membranes are prepared from stably transfected cell lines expressing 5HT7 receptors cultured on 10-cm plates by harvesting PBS-rinsed monolayers, resuspending and lysing in chilled, hypotonic 50 mM Tris-HCl, pH 7.4, centrifuging at 20,000×g, decanting the supernatant and storing at −80° C.; the membrane preparations are resuspended in 3 ml of chilled Assay Buffer and homogenized by several passages through a 26 guage needle before using in the assay.
A general note: Loss of bound radioactivity is the signal in a displacement assay; it reports binding, not function.

One may read the IC50 as the concentration needed to halve the response being measured. Turning to `CCC1(CC)CC(CCCN2CCN(c3ccc(OC)cc3)CC2)OC1=O` (stereo not shown) [Entry 230060], the IC50 came to 1000 nM.

On to `O=C1OC(CCN2CCN(c3ccnc(Cl)c3)CC2)CC12CCCCC2` (stereo not shown) [Entry 160153], for which, for the setting “single concentration of 10 uM, percent inhibition of radioligand binding”, the “5-HT7 % inhib @ 10 uM” value is reported as 58.2%.

As for `COc1ccc(N2CCN(CC[C@@H]3CC(C)(C)C(=O)O3)CC2)cc1` [Entry 230039], the IC50 was 1000 nM.

Turning to `COc1ccnc(N2CCN(CCC3CC4(CCCC4)C(=O)O3)CC2)c1` (stereo not shown) [Entry 230009], the concentration for half-maximal inhibition (IC50) was found to be 124 nM and the inhibition at 10 µM was 90%.

As for `COc1ccc(N2CCN(CC[C@H]3CC(C)(C)C(=O)O3)CC2)cc1` [Entry 230046], the 50% inhibitory concentration (IC50) turned out to be 1000 nM.

Consider `CCC1(CC)CC(CCN2CCN(c3ccc4nc(C(F)(F)F)[nH]c4c3)CC2)OC1=O` (stereo not shown) [Entry 230068], for which the half-inhibitory concentration (IC50) was determined as 1000 nM.

In the case of `O=C1OC(CCN2CCN(c3ccc4[nH]ccc4c3)CC2)CC12CCCC2` (stereo not shown) [Entry 160147], the inhibition at 10 µM is 99.6%.

In the case of `CCC1(CC)CC(CCN2CCN(c3ccc4nc(C)[nH]c4c3)CC2)OC1=O` (stereo not shown) [Entry 230069], the IC50 was found to be 1000 nM and the inhibition at 10 µM came to 15.9%.
